We go through ten molecules from ChEMBL document CHEMBL3046385, “Synthesis and bioactivity of novel 3-(1-hydroxyethylidene)-5-substituted-pyrrolidine-2,4-dione derivatives” (Chin Chem Lett, 2012).

Assay [1] relates to Echinochloa crus-galli. In words: Herbicidal activity against Echinochloa crus-galli (barnyard grass) assessed as stalk inhibition. It counts as functional, organism-based.
Assay [2] relates to Brassica rapa subsp. oleifera. In words: Herbicidal activity against Brassica rapa subsp. oleifera assessed as root inhibition at 100 mg/l. Type of assay: functional.
In assay [3] the test system is Echinochloa crus-galli. In words: Herbicidal activity against Echinochloa crus-galli (barnyard grass) assessed as root inhibition at 100 mg/l. It counts as functional.
Assay [4] deals with Echinochloa crus-galli. The assay is described as follows: Herbicidal activity against Echinochloa crus-galli (barnyard grass) assessed as stalk inhibition at 100 mg/l. It counts as functional.
In assay [5] the test system is Brassica rapa subsp. oleifera. In words: Herbicidal activity against Brassica rapa subsp. oleifera assessed as root inhibition. Type of assay: functional, organism-based.

Each structure is given as a SMILES string. ≈ marks a conversion by molar mass, not a printed value.

As to `CCCCCCC1NC(=O)/C(=C(/C)O)C1=O` (centres undefined), the concentration for a half-maximal effect (EC50) (in general, the concentration needed to bring the measured effect to its halfway point) in the assay on Echinochloa crus-galli [1] amounted to 72.7 µg/mL (≈ 323 µM). In addition, the inhibition (usually the relative decrease from the control value, in per cent) at 100 µg/mL is 43.1% in assay [2], 47.8% with Echinochloa crus-galli [3] and 66.9% in the assay on Echinochloa crus-galli [4].
As to `COc1ccc(CC2NC(=O)/C(=C(/C)O)C2=O)cc1` (centres undefined), the figures for the inhibition at 100 µg/mL (in assay [2]; in the assay on Echinochloa crus-galli [3]; in the assay with Echinochloa crus-galli [4]) were 62.9%, 32.8% and 41.2%, respectively.
The matching figures for `C/C(O)=C1/C(=O)NC(Cc2ccc(Cl)cc2Cl)C1=O` (centres undefined): 59.3%, 31.6% and 19.1%.
Take `COc1ccc(C(=O)CC2NC(=O)/C(=C(/C)O)C2=O)cc1` (centres undefined): the EC50 with Echinochloa crus-galli [1] is 94.4 µg/mL (≈ 326 µM). Further, the inhibition at 100 µg/mL in assay [2] is 45.9%; in the assay on Echinochloa crus-galli [3], 61.5%; in the assay on Echinochloa crus-galli [4] it was 62.6%.
Take `C/C(O)=C1/C(=O)NC(CC(=O)c2ccccc2)C1=O` (centres undefined): the inhibition at 100 µg/mL in assay [2] was 66.9%; with Echinochloa crus-galli [3], 47.9%; in the assay with Echinochloa crus-galli [4], 36.4%.
Regarding `C/C(O)=C1/C(=O)NC(C/C=C/c2ccccc2)C1=O` (centres undefined), the EC50 in assay [5] came out at 39.2 µg/mL (≈ 152 µM). For the same molecule, the inhibition at 100 µg/mL in assay [2] was determined as 90.4%; with Echinochloa crus-galli [3], 54%; in the assay with Echinochloa crus-galli [4], 42.5%.
As to `CCCCC1NC(=O)/C(=C(/C)O)C1=O` (centres undefined), the inhibition at 100 µg/mL in assay [2] was determined as 46.3%; with Echinochloa crus-galli [3], 38.5%; with Echinochloa crus-galli [4], 32.3%.
Consider `C/C(O)=C1/C(=O)NC(Cc2ccc(Cl)cc2)C1=O` (centres undefined), for which the EC50 in assay [5] came to 25.5 µg/mL (≈ 96 µM). Besides, the inhibition at 100 µg/mL amounted to 89.7% in assay [2], 49.6% in the assay with Echinochloa crus-galli [3] and 37.8% in the assay with Echinochloa crus-galli [4].
Take `C/C(O)=C1/C(=O)NC(Cc2ccccc2Cl)C1=O` (centres undefined): the values for the inhibition at 100 µg/mL (in assay [2]; in the assay with Echinochloa crus-galli [3]; in the assay with Echinochloa crus-galli [4]) were 41.8%, 37.3% and 35.7%, respectively.
Take `C/C(O)=C1/C(=O)NC(Cc2ccc([N+](=O)[O-])cc2)C1=O` (centres undefined): the inhibition at 100 µg/mL was found to be 45.7% in assay [2], 64.3% in the assay on Echinochloa crus-galli [3] and 41.6% with Echinochloa crus-galli [4].
